Results: patent publication US6399658B1, “Composition containing ascorbic acid” (Sumitomo Pharmaceuticals Co., Ltd., priority 1996, dated 2002)

Legend:
KKAy mice [1] = assay: Reduction of blood sugar levels in diabetic model animals (KKAy mice), metformin L-ascorbate study; details: p.o. twice a day for 5 days; for Blood glucose levels: 2 hr after last administration, metformin hydrochloride 600, L-ascorbic acid 800, metformin L-ascorbate 1400 mg/kg/dose
KKAy mice [2] = assay: Reduction of blood sugar levels in diabetic model animals (KKAy mice), metformin hydrochloride + L-ascorbic acid study; format: in vivo, mouse; details: p.o. twice a day for 5 days; for Blood glucose levels: 2 hr after last administration, metformin hydrochloride 600, L-ascorbic acid 2900, metformin hydrochloride 600 + L-ascorbic acid 2900 mg/kg/dose
Excerpt: . The experimental schedule was as follows.

5/6 nephrectomy rats = details: p.o. twice a day for 4 days
Excerpt: After 5-week old Wistar rats were acclimatized for 7 to 10 days, 2/3 of left kidney were removed. After the rats were bred and observed for 7 days, all right kidney was removed. After the rats were bred and observed for 7 to 10 days, the rats were used for experiments.
The experimental schedule was as follows. 5/6 Nephrectomy rats were divided into four groups according to their weight, blood urea nitrogen levels and serum creatinine levels after preliminary breeding and observation after purchase. […] The volume of administrated liquids was 5 mL/kg/dose. […] Blood was collected from tail vein under ether anesthetics at the day 5, and the blood lactic acid levels were measured.

[3] = system: rat hepatocytes primary culture; assay: Inhibition of gluconeogenesis in rat hepatocytes primary culture; format: cell-based; details: 6 hr; for Glucose levels in the medium: Hanks solution containing 0.1% fructose
Experimental: Hepatocytes were isolated from a male Wistar rat. The isolated hepatocytes were grown on gelatin coated 24-well plate (3×10^5 cells/well) in Williams E medium containing 10 nM dexamethasone and 5% fetal calf serum under the 37° C., 5% CO2/95% air condition for 24 hr.
After the plates of hepatocytes primary culture were washed by phosphate buffer twice, the medium were changed to Hanks solution containing 0.1% fructose (depletion glucose). […] Glucose levels (mg/dL) in the medium were measured.

3T3-L1 adipocytes = assay: Lactic acid increase induced by metformin hydrochloride in 3T3-L1 adipocytes; format: cell-based, mouse; details: for Lactic acid levels: additive 40 mM together with metformin hydrochloride 10 mM, medium after 24 hr, 30% O2/5% CO2
Experimental: Then the cells were differentiated to adipocytes according to the following procedure. […] The medium was changed with the same fresh medium every 48 hr until experiments. Lactic acid levels were measured by enzyme assay on lactate dehydrogenase and glutamate pyruvate transaminase, using Lactate Test BMY (Boehringer Mannheim). To the plate of the differentiated 3T3-L1 cells were added metoformin hydrochloride (10 mM) and various acids (40 mM), and the differentiated 3T3-L1 cells were incubated under 30% O2/5% CO2 condition for 24 hr. Lactic acid levels in the medium were measured.

Row | Compound | Effect for reducing blood glucose levels (in words) (KKAy mice [1]) | Blood glucose levels (KKAy mice [1]) [mg/dL] | Blood glucose levels (KKAy mice [2]) [mg/dL] | Lactic acid levels (3T3-L1 adipocytes) [mg/dL] | other results
1 | CN(C)C(=N)NC(=N)N.Cl [Metformin hydrochloride, 1,1-dimethylbiguanide hydrochloride] | Significant effects for reducing blood glucose levels | 247.6 ± 30.2 | 286.5 ± 63.1 | – | Effect for reducing blood glucose levels (in words) (KKAy mice [2]): Significant effects for reducing blood glucose levels
2 | CN(C)C(=N)N=C(N)N.O=C1OC(C(O)CO)C(O)=C1O [Metformin L-ascorbate] | Significant effects for reducing blood glucose levels | 270.3 ± 78.2 | – | – | Blood lactic acid levels (5/6 nephrectomy rats; blood at day 5, metformin hydrochloride 250 mg/kg/dose, metformin L-ascorbate 461 mg/kg/dose, metformin hydrochloride 250 + L-ascorbic acid 266 mg/kg/dose (same moles of metformin)): 40.2 ± 6.2 (†)(*) mg/dL; Blood lactic acid levels compared with metformin hydrochloride group (in words) (5/6 nephrectomy rats; day 5): significantly lower than metformin hydrochloride group; Blood lactic acid levels compared with vehicle group (in words) (5/6 nephrectomy rats; day 5): significantly higher than vehicle group
3 | O=C1O[C@H]([C@@H](O)CO)C(O)=C1O [L-ascorbic acid] | – | 392.8 ± 45.3 | 367.0 ± 45.3 | 73 | Glucose levels in the medium ([3]; 1 mM (each 1 mM for the combination)): 14.6 mg/dL; Glucose levels in the medium ([3]; 3 mM (each 3 mM for the combination)): 10.6 mg/dL; Effect on gluconeogenesis (in words) ([3]; 1 or 3 mM): Gluconeogenesis was reduced; Effect on lactic acid increase induced by metformin hydrochloride (in words) (3T3-L1 adipocytes; 40 mM with metformin hydrochloride 10 mM, 24 hr): prevented lactic acid increase induced by metformin hydrochloride
4 | O=C(O)CC(O)(CC(=O)O)C(=O)O [Citric acid, citric acid] | – | – | – | 155 | –
5 | O=C(O)CC(O)C(=O)O (stereo not shown) [Malic acid, malic acid] | – | – | – | 143 | –
6 | O=C(O)CCC(=O)O [Succinic acid, succinic acid] | – | – | – | 145 | –
